Results from US20250049777A1, “PHARMACEUTICALLY ACCEPTABLE SALT AND CRYSTALLINE FORM OF GLP-1 RECEPTOR AGONIST AND PREPARATION METHOD THEREFOR” (JIANGSU HENGRUI PHARMACEUTICALS CO., LTD., priority 2021, published 2025).
Where a name gives a salt, the structure may show the parent alone. Read-outs that look alike come from different tables or passages of the source.

Assays:
[1] = type: physicochemical
Protocol: A salt-type sample was sealed with an aluminum foil bag and placed under the conditions of 25° C./60% RH and 40° C./75% RH, respectively, to investigate the stability.

[2] = Stability of crystal forms of salts under influencing factors (illumination, high temperature, high humidity); type: physicochemical
Text: The sampling and investigation period was 30 days.

[3] = Hygroscopicity of crystal forms of salts (DVS, 25° C.); type: physicochemical; conditions: for Crystal form after DVS: 0% to 95% RH
Text: According to the description of hygroscopic characteristics and the definition of hygroscopic weight gain in “9103 Guidelines for Hygroscopicity of Pharmaceuticals”, Chinese Pharmacopoeia, Volume IV, 2015 edition, the following are defined: • deliquescent: absorbing enough water to form a liquid; • extremely hygroscopic: having a hygroscopic weight gain of not less than 15%; • hygroscopic: having a hygroscopic weight gain of less than 15% and not less than 2%; • slightly hygroscopic: having a hygroscopic weight gain of less than 2% and not less than 0.2%; and • no or almost no hygroscopicity: having a hygroscopic weight gain of less than 0.2%.
Surface Measurement Systems intrinsic DVS was used at 25° C. The observed humidity ranged from 0% to 95%. The step was 10%. The criterion was that the mass change dM/dT for each step was less than 0.002%. TMAX was 360 min. Two cycles were carried out.

[4] = 40° C./75% RH, 3 months, sealed aluminum foil bag
[5] = 25° C./60% RH, 1 month, sealed aluminum foil bag
[6] = 25° C./60% RH, 2 months, sealed aluminum foil bag
[7] = 25° C./60% RH, 3 months, sealed aluminum foil bag
[8] = 25° C./60% RH, sealed aluminum foil bag
[9] = 40° C./75% RH, 1 month, sealed aluminum foil bag
[10] = 40° C./75% RH, 2 months, sealed aluminum foil bag
[11] = 40° C./75% RH, sealed aluminum foil bag
[12] = Illumination (4500 Lux), 7 days, open
[13] = Illumination (4500 Lux), 14 days, open
[14] = Illumination (4500 Lux), 30 days, open
[15] = Illumination (4500 Lux), 5 days, open
[16] = Illumination (4500 Lux), 10 days, open

## O=C(O)c1ccc2nc(CN3CCC(c4cccc5c4O[C@@H](c4ccc(Cl)cc4F)CO5)CC3)n(C[C@@H]3CCO3)c2c1 [Crystal form α of malate salt, 2-((4-((S)-3-(4-chloro-2-fluorophenyl)-2,3-dihydrobenzo[b][1,4]dioxan-5-yl)piperidin-1-yl)methyl)-1-(((S)-oxetan-2-yl)methyl)-1H-benzo[d]imidazole-6-carboxylic acid]
[1]; [4]
  % Purity: 97.1%
[1]; Initial condition
  % Purity: 99.0%
[2]; 92.5% RH, 5 days, open, listed as crystal form a of malate salt
  % Purity: 99.0%
[2]; Initial condition, 0 days, listed as crystal form a of malate salt
  % Purity: 99.0%

## O=C(O)c1ccc2nc(CN3CCC(c4cccc5c4O[C@@H](c4ccc(Cl)cc4F)CO5)CC3)n(C[C@@H]3CCO3)c2c1 [Crystal form E of tromethamine salt, 2-((4-((S)-3-(4-chloro-2-fluorophenyl)-2,3-dihydrobenzo[b][1,4]dioxan-5-yl)piperidin-1-yl)methyl)-1-(((S)-oxetan-2-yl)methyl)-1H-benzo[d]imidazole-6-carboxylic acid]
[1]
  physical and chemical stability: good physical and chemical stability
[1]; [5]
  % Purity: 98.2%
[1]; [6]
  % Purity: 98.3%
[1]; [7]
  % Purity: 98.1%
[1]; [8]
  Crystal form: Unchanged
[1]; [9]
  % Purity: 97.7%
[1]; [10]
  % Purity: 97.7%
[1]; [4]
  % Purity: 97.2%
[1]; [11]
  Crystal form: Unchanged
[1]; Initial condition
  % Purity: 98.3%
[2]
  chemical stability: slightly poor chemical stability
  physical stability: slightly poor physical stability
[2]; 40° C., 7 days, open
  % Purity: 96.0%
  Crystal form: Unchanged
[2]; 40° C., 14 days, open
  % Purity: 93.6%
  Crystal form: Unchanged
[2]; 40° C., 30 days, open
  % Purity: 85.0%
  Crystal form: Unchanged
[2]; 60° C., 7 days, open
  % Purity: 94.8%
  Crystal form: Unchanged
[2]; 60° C., 30 days, open
  % Purity: 81.8%
  Crystal form: Amorphous form
[2]; 75% RH, 7 days, open
  % Purity: 98.3%
  Crystal form: Unchanged
[2]; 75% RH, 14 days, open
  % Purity: 98.4%
  Crystal form: Unchanged
[2]; 75% RH, 30 days, open
  % Purity: 98.3%
  Crystal form: Unchanged
[2]; 92.5% RH, 7 days, open
  % Purity: 98.2%
  Crystal form: Unchanged
[2]; 92.5% RH, 14 days, open
  % Purity: 98.2%
  Crystal form: Unchanged
[2]; 92.5% RH, 30 days, open
  % Purity: 98.1%
  Crystal form: Amorphous form
[2]; [12]
  % Purity: 98.1%
  Crystal form: Unchanged
[2]; [13]
  % Purity: 97.9%
  Crystal form: Unchanged
[2]; [14]
  % Purity: 95.5%
  Crystal form: Unchanged
[2]; Initial condition, 0 days
  % Purity: 98.3%
[3]
  hygroscopic weight gain 0.0% RH to 80.0% RH: 7.27%
  Crystal form after DVS: Unchanged

## O=C(O)c1ccc2nc(CN3CCC(c4cccc5c4O[C@@H](c4ccc(Cl)cc4F)CO5)CC3)n(C[C@@H]3CCO3)c2c1 [Crystal form D of tromethamine salt, 2-((4-((S)-3-(4-chloro-2-fluorophenyl)-2,3-dihydrobenzo[b][1,4]dioxan-5-yl)piperidin-1-yl)methyl)-1-(((S)-oxetan-2-yl)methyl)-1H-benzo[d]imidazole-6-carboxylic acid]
[1]
  physical and chemical stability: good physical and chemical stability
[1]; [5]
  % Purity: 99.7%
[1]; [7]
  % Purity: 99.7%
[1]; [8]
  Crystal form: Unchanged
[1]; [9]
  % Purity: 99.5%
[1]; [4]
  % Purity: 99.1%
[1]; [11]
  Crystal form: Unchanged
[1]; Initial condition
  % Purity: 99.7%
[2]; 40° C., 7 days, open
  % Purity: 99.5%
  Crystal form: Unchanged
[2]; 40° C., 14 days, open
  % Purity: 99.3%
  Crystal form: Unchanged
[2]; 40° C., 30 days, open
  % Purity: 99.3%
  Crystal form: Unchanged
[2]; 60° C., 7 days, open
  % Purity: 99.4%
  Crystal form: Unchanged
[2]; 60° C., 14 days, open
  % Purity: 99.1%
  Crystal form: Unchanged
[2]; 60° C., 30 days, open
  % Purity: 99.0%
  Crystal form: Unchanged
[2]; 75% RH, 7 days, open
  % Purity: 99.7%
  Crystal form: Unchanged
[2]; 75% RH, 14 days, open
  % Purity: 99.6%
  Crystal form: Unchanged
[2]; 75% RH, 30 days, open
  % Purity: 99.6%
  Crystal form: Unchanged
[2]; 92.5% RH, 7 days, open
  % Purity: 99.5%
  Crystal form: Unchanged
[2]; 92.5% RH, 14 days, open
  % Purity: 99.4%
  Crystal form: Unchanged
[2]; 92.5% RH, 30 days, open
  % Purity: 99.0%
  Crystal form: Unchanged
[2]; [12]
  % Purity: 99.6%
  Crystal form: Unchanged
[2]; [13]
  % Purity: 99.6%
  Crystal form: Unchanged
[2]; [14]
  % Purity: 99.6%
  Crystal form: Unchanged
[2]; Initial condition, 0 days
  % Purity: 99.7%
[3]
  hygroscopic weight gain 0.0% RH to 80.0% RH: 2.45%
  Crystal form after DVS: Unchanged

## O=C(O)c1ccc2nc(CN3CCC(c4cccc5c4O[C@@H](c4ccc(Cl)cc4F)CO5)CC3)n(C[C@@H]3CCO3)c2c1 [Crystal form I of hydrochloride salt, 2-((4-((S)-3-(4-chloro-2-fluorophenyl)-2,3-dihydrobenzo[b][1,4]dioxan-5-yl)piperidin-1-yl)methyl)-1-(((S)-oxetan-2-yl)methyl)-1H-benzo[d]imidazole-6-carboxylic acid]
[1]
  physical and chemical stability: good physical and chemical stability
[1]; [5]
  % Purity: 98.1%
[1]; [6]
  % Purity: 97.9%
[1]; [8]
  Crystal form: Unchanged
[1]; [9]
  % Purity: 97.8%
[1]; [10]
  % Purity: 97.8%
[1]; [11]
  Crystal form: Unchanged
[1]; Initial condition
  % Purity: 98.0%
[2]; 40° C., 5 days, open
  % Purity: 98.0%
  Crystal form: Unchanged
[2]; 40° C., 10 days, open
  % Purity: 98.1%
  Crystal form: Unchanged
[2]; 40° C., 30 days, open
  % Purity: 97.8%
  Crystal form: Unchanged
[2]; 60° C., 5 days, open
  % Purity: 97.6%
  Crystal form: Unchanged
[2]; 60° C., 10 days, open
  % Purity: 97.7%
  Crystal form: Unchanged
[2]; 60° C., 30 days, open
  % Purity: 97.7%
  Crystal form: Unchanged
[2]; 75% RH, 5 days, open
  % Purity: 98.1%
  Crystal form: Unchanged
[2]; 75% RH, 10 days, open
  % Purity: 98.0%
  Crystal form: Unchanged
[2]; 75% RH, 30 days, open
  % Purity: 98.1%
  Crystal form: Unchanged
[2]; 92.5% RH, 5 days, open
  % Purity: 98.1%
  Crystal form: Unchanged
[2]; 92.5% RH, 10 days, open
  % Purity: 97.4%
  Crystal form: Unchanged
[2]; 92.5% RH, 30 days, open
  % Purity: 96.9%
  Crystal form: Unchanged
[2]; [15]
  % Purity: 97.9%
  Crystal form: Unchanged
[2]; [16]
  % Purity: 98.1%
  Crystal form: Unchanged
[2]; [14]
  % Purity: 98.0%
  Crystal form: Unchanged
[2]; Initial condition, 0 days
  % Purity: 98.0%
